SMILES strings stand for the structures.

The IC50 is the point on the concentration scale where inhibition reaches its midpoint. The term half-life denotes the time needed for the level to fall by half in the phase considered.

Data set [1] deals with Lysine-specific histone demethylase 1A (Homo sapiens, UniProt O60341). As to the kind of experiment: Inhibition of human recombinant LSD1 expressed in Escherichia coli using H3K4me2 peptide as substrate incubated for 60 mins by AlphaLISA assay. A general note: Alpha assays give light when donor and acceptor beads are brought close together.
The test system of a further data set is MOLM-13. As to the kind of experiment: Antiproliferative activity against human MOLM-13 cells assessed as cell growth inhibition incubated for 7 days by WST-8 assay. In kind it is functional, cell-based. The settings on record: MOLM-13, 168 h. (Tetrazolium dyes change colour on reduction, which living cells bring about.)
Another data set deals with MV4-11. As to the kind of experiment: Antiproliferative activity against human MV4-11 cells assessed as cell growth inhibition incubated for 10 days by WST-8 assay. In kind it is functional, cell-based. To be noted: MV4-11, 240 h.
In the next data set the test system is NCI-H1417. As to the kind of experiment: Antiproliferative activity against human NCI-H1417 cells assessed as cell growth inhibition incubated for 10 days by WST-8 assay. In kind it is functional, cell-based. To be noted: NCI-H1417, 240 h.
Data set [2] can be described thus: Microsomal stability in human liver microsome assessed as half life measured upto 60 mins by LC-MS/MS analysis. In kind it is ADME. The settings on record: liver microsomes.
Data set [3] in a line: Microsomal stability in rat liver microsome assessed as half life measured upto 60 mins by LC-MS/MS analysis. In kind it is ADME. To be noted: liver microsomes. On the technique in general: Liver microsomes are vesicles of endoplasmic reticulum, rich in cytochrome P450 enzymes.
Data set [4] in a line: Microsomal stability in mouse liver microsome assessed as half life measured upto 60 mins by LC-MS/MS analysis. The data set is classed as ADME. To be noted: liver microsomes.
Data set [5] in a line: Microsomal stability in dog liver microsome assessed as half life measured upto 60 mins by LC-MS/MS analysis. In kind it is ADME, Canis lupus familiaris. To be noted: liver microsomes.

In the case of `C/C(=N\NC(=O)c1cccc(S(=O)(=O)N2CCN(C)CC2)c1)c1cc(Cl)ccc1O` [SECLIDEMSTAT], the IC50 in data set [1] is 26.2 nM.

On to `CCC1(Cn2ccc3c(-c4ccc(C#N)cc4)c(-c4ccc5c(cnn5C)c4)ncc32)CCNCC1`, for which, in data set [1], the IC50 was 121 nM.

Take `Cc1ccc(-c2ncc3c(ccn3CC3CCNCC3)c2-c2ccc(C#N)cc2)cc1`: the IC50 in data set [1] stood at 34.5 nM.

In the case of `CN1CCOc2cc(-c3ncc4c(ccn4CC4CCNCC4)c3-c3ccc(C#N)cc3)ccc21`, the IC50 with MOLM-13 stood at 170 nM; with MV4-11, 2.9 nM; in data set [1], 4.6 nM; in the data set on NCI-H1417, 9.3 nM.

For the molecule `Cn1ncc2cc(-c3ncc4[nH]ccc4c3-c3ccc(C#N)cc3)ccc21`, the half-inhibitory concentration (IC50) in data set [1] amounted to 3710 nM.

Take `CNCCCn1ccc2c(-c3ccc(C#N)cc3)c(-c3ccc4c(cnn4C)c3)ncc21`: the IC50 in data set [1] was 42.8 nM.

Take `CN(C)c1ccc(-c2ncc3c(ccn3CC3CCNCC3)c2-c2ccc(C#N)cc2)cc1`: the IC50 in data set [1] stood at 9.4 nM.

For `Cn1ccc2cc(-c3ncc4c(ccn4CC4CCNCC4)c3-c3ccc(C#N)cc3)ccc21`, the IC50 in data set [1] worked out at 6.5 nM.

`Cn1ncc2cc(-c3ncc4c(ccn4Cc4c[nH]cn4)c3-c3ccc(C#N)c(F)c3)ccc21`: the IC50 in data set [1] is > 10000 nM.

Take `Cn1ncc2cc(-c3ncc4c(ccn4CC4(C)CCNCC4)c3-c3ccc(C#N)cc3)ccc21`: the IC50 was 126 nM in the data set on MOLM-13, 3.2 nM in the data set with MV4-11, 4.3 nM in data set [1] and 5.7 nM in the data set on NCI-H1417.

Turning to `Cn1ncc2cc(-c3ncc4c(ccn4C[C@@H]4CCNC4)c3-c3ccc(C#N)c(F)c3)ccc21`, the half-life in data set [2], in data set [3], in data set [4] and in data set [5] was > 60 min each time. In data set [1], the IC50 amounted to 3.7 nM.

Regarding `N#Cc1ccc(-c2c(-c3ccc4[nH]ncc4c3)ncc3c2ccn3CC2CCNCC2)cc1`, the IC50 in data set [1] came to 94.3 nM.

Regarding `C=C(C)c1ccc(-c2ncc3c(ccn3CC3CCNCC3)c2-c2ccc(C#N)cc2)cc1`, the half-maximal inhibitory concentration (IC50) in data set [1] worked out at 58.5 nM.

Turning to `Cn1ccc2cc(-c3ncc4c(ccn4CC4CCNCC4)c3-c3ccc(C#N)cc3)cnc21`, the IC50 in data set [1] was 5.1 nM.

For the molecule `Cc1ccc(-c2ncc3c(ccn3CC3CCNCC3)c2-c2ccc(C#N)cc2)cc1C`, the IC50 in data set [1] was determined as 24.3 nM.

With `Cc1cc(C#N)ccc1-c1c(-c2ccc3c(cnn3C)c2)ncc2c1ccn2CC1CCNCC1`, the half-inhibitory concentration (IC50) in data set [1] worked out at 215 nM.

Turning to `Cn1ncc2cc(-c3ncc4c(ccn4CC4CCNCC4)c3-c3ccc(C#N)c(F)c3)ccc21`, the half-life in data set [2], in data set [3], in data set [4] and in data set [5] was > 60 min throughout. For the same molecule, the IC50 with MOLM-13 turned out to be 316 nM; with MV4-11 it was 2.7 nM; in data set [1] it was 3.9 nM; with NCI-H1417, 7.3 nM.

Take `Cn1ncc2cc(-c3ncc4c(ccn4Cc4cccnc4)c3-c3ccc(C#N)c(F)c3)ccc21`: the IC50 in data set [1] was > 10000 nM.

As to `COC(C)(C)c1ccc(-c2ncc3c(ccn3CC3CCNCC3)c2-c2ccc(C#N)cc2)cc1`, in data set [1], the IC50 amounted to 16.5 nM.

In the case of `Cn1ncc2cc(-c3ncc4c(ccn4CCCCN)c3-c3ccc(C#N)cc3)ccc21`, the IC50 in data set [1] was 12.4 nM.

Turning to `Cc1ccc(-c2ncc(OC[C@@H]3CCNC3)cc2-c2ccc(C#N)cc2)cc1`, the IC50 in the data set on MOLM-13 is 613 nM; with MV4-11 it was 122 nM; in data set [1] it was 130 nM; in the data set with NCI-H1417, 213 nM.

`CS(=O)(=O)c1ccc(-c2ncc3c(ccn3CC3CCNCC3)c2-c2ccc(C#N)cc2)cc1`: the IC50 in data set [1] amounted to 146 nM.

`Cn1ncc2cc(-c3ncc4c(ccn4C[C@@H]4CCCNC4)c3-c3ccc(C#N)c(F)c3)ccc21`: in data set [1], the IC50 stood at 3.5 nM.

For `Cn1ncc2cc(-c3ncc4c(ccn4CC4(C)CCNCC4)c3-c3ccc(C#N)c(F)c3)ccc21`, the half-life in data set [2], in data set [3], in data set [4] and in data set [5] was > 60 min throughout. Also, the IC50 turned out to be 31 nM with MOLM-13, 0.6 nM in the data set with MV4-11, 3.1 nM in data set [1] and 1.1 nM with NCI-H1417.

For `Cn1ncc2cc(-c3ncc4c(ccn4CC4CCNCC4)c3-c3ccc(C(N)=O)cc3)ccc21`, the IC50 in data set [1] turned out to be 6250 nM.

On to `Cc1ccc(-c2ncc3c(ccn3CC3CCNCC3)c2-c2ccc(C#N)cc2)cn1`, for which, in data set [1], the IC50 was determined as 69.8 nM.

Take `Cn1ncc2cc(-c3ncc4c(ccn4CC4CCNCC4)c3-c3ccc(C#N)cc3)ccc21`: the IC50 worked out at 62 nM with MOLM-13, 4.1 nM with MV4-11, 12.9 nM in data set [1] and 11 nM in the data set with NCI-H1417.

Regarding `CC(C)(C)c1ccc(-c2ncc3c(ccn3CC3CCNCC3)c2-c2ccc(C#N)cc2)cc1`, in data set [1], the IC50 came out at 47.9 nM.

For the molecule `Cc1ccc(-c2ncc3c(ccn3C[C@@H]3CCNC3)c2-c2ccc(C#N)cc2)cc1`, in data set [1], the 50% inhibitory concentration (IC50) is 80 nM.

For `Cc1cc(-c2c(-c3ccc4c(cnn4C)c3)ncc3c2ccn3CC2CCNCC2)ccc1C#N`, in data set [1], the IC50 was 156 nM.

`CC(C)c1ccc(-c2ncc3c(ccn3CC3CCNCC3)c2-c2ccc(C#N)cc2)cc1`: the IC50 in data set [1] is 46.1 nM.

Consider `Cn1cnc2cc(-c3ncc4c(ccn4CC4CCNCC4)c3-c3ccc(C#N)cc3)ccc21`, for which the IC50 in data set [1] was 15.4 nM.

With `Cn1ncc2cc(-c3ncc4c(ccn4CC4CCNCC4)c3-c3ccc(C#N)cc3F)ccc21`, the IC50 in data set [1] came out at 17.5 nM.

Turning to `Cn1cc(-c2ncc3c(ccn3CC3CCNCC3)c2-c2ccc(C#N)cc2)cn1`, the IC50 in data set [1] was > 1000 nM.

Take `CN1CCOc2cc(-c3ncc4c(ccn4CC4(C)CCNCC4)c3-c3ccc(C#N)c(F)c3)ccc21`: the half-life in data set [2] is < 10 min; in data set [3], 36 min; in data set [4], < 10 min; in data set [5], 35 min. Besides, the IC50 with MOLM-13 was found to be 182 nM; with MV4-11 it was 0.7 nM; in data set [1], 1.4 nM; in the data set with NCI-H1417, 2.3 nM.

As for `N#Cc1ccc(-c2c(-c3ccc(N)cc3)ncc3c2ccn3CC2CCNCC2)cc1`, the concentration for half-maximal inhibition (IC50) in data set [1] was 354 nM.

For `COC(=O)Nc1ccc(-c2ncc3c(ccn3CC3CCNCC3)c2-c2ccc(C#N)cc2)cc1`, the IC50 in data set [1] was determined as 53.8 nM.

Turning to `CC(C)(O)c1ccc(-c2ncc3c(ccn3CC3CCNCC3)c2-c2ccc(C#N)cc2)cc1`, the IC50 in data set [1] was 21.1 nM.

On to `CN1CCOc2cc(-c3ncc4c(ccn4CC4CCNCC4)c3-c3ccc(C#N)c(F)c3)ccc21`, for which the half-life in data set [2] was < 10 min; in data set [3] it was 42 min; in data set [4], < 10 min; in data set [5], 37 min. Besides, the half-maximal inhibitory concentration (IC50) in the data set on MOLM-13 turned out to be 58 nM; in the data set with MV4-11, 1.7 nM; in data set [1], 4.3 nM; in the data set on NCI-H1417, 2.7 nM.

As to `CN1CCOc2cc(-c3ncc4c(ccn4CC4(C)CCNCC4)c3-c3ccc(C#N)cc3)ccc21`, the IC50 with MOLM-13 was found to be 130 nM; in the data set with MV4-11, 1.5 nM; in data set [1], 1.3 nM; in the data set on NCI-H1417 it was 3.7 nM.

For `CNC1CCC(Cn2ccc3c(-c4ccc(C#N)c(F)c4)c(-c4ccc5c(cnn5C)c4)ncc32)CC1` (stereo not drawn), the IC50 in data set [1] amounted to 229 nM.

For the origin of these results see ChEMBL document CHEMBL5365548, “Discovery of Pyrrolo[2,3-c]pyridines as Potent and Reversible LSD1 Inhibitors” (ACS Med Chem Lett, 2023).
